Among the data in patent publication US7012085B2, “1,3 disubstituted pyrrolidines as α-2-adrenoceptor antagonists” (Novartis AG, priority 2000, dated 2006) are reduction of locomotion and inhibition of catalepsy values, retold here.

In experiment [1] the test system is amphetamine induced locomotion. Kind of experiment: amphetamine induced locomotion in rats. The class given is in vivo. Here is the method:
The compound or the solvent are administered at t=−30 min.

The test system of experiment [2] is loxapine-induced catalepsy. Description: loxapine-induced catalepsy in rats. Type of experiment: in vivo. The note with it: 0.3-3 mg/kg s.c. Here is the method:
Kalkman H. O. et al., Br. J. Pharmacol. 124:1550-1556 (1998)] at doses of about 0.3 to about […] s.c.

Regarding `COc1ccccc1[C@H]1CCN(Cc2ccc(=O)n(C(C)C)c2)C1` [(R)-1-isopropyl-5-[3-(2-methoxyphenyl)pyrrolidin-1-ylmethyl]-1H-pyridin-2-one], in experiment [1] (rats, 0.1, 0.3 and 1 mg/kg s.c.), the reduction of locomotion entry is “dose-dependently reduce locomotion”. The inhibition of catalepsy entry in experiment [2] is “long lasting, dose-dependent inhibition of catalepsy”.
`COc1ccccc1[C@H]1CCN(Cc2ccc3c(c2)OCCO3)C1` [(R)-1-(2,3,-dihydro-benzo-[1,4]dioxin-6-ylmethyl)-3-(2-methoxyphenyl)pyrrolidine]: the reduction of locomotion result in experiment [1] (rats, 1, 3 and 10 mg/kg s.c.) is recorded as “dose-dependently reduce locomotion”. Further, the inhibition of catalepsy result in experiment [2] is “long lasting, dose-dependent inhibition of catalepsy”.
